The results in this text go back to US20110319360A1, “Method of including apoptosis/Cell death in leukemia cell using a purine nucleoside analogue” (U.S. Department of Veterans Affairs, priority 2010, published 2011).

Like-named read-outs stand apart in the source and are kept apart here. Where only a bound is given, the exact number is not on record here.

Data set [1] has as its system normal PBMCs. The data set is described as follows: MTS cytotoxicity assay on PBMCs from normal donors. It counts as cell-based, human. The settings on record: for EC50: Homo sapiens, PBMC, read-out: ED50 (μM), PBMC. The procedure:
For toxicity studies involving normal blood cells, normal volunteers were enrolled in an IRB-approved protocol for blood collection. PBMCs were isolated from heparin-anticoagulated blood by ficoll-Hypaque density gradient centrifugation.
(§1) 2.5×10^5 CLL cells were incubated in triplicate or quadruplicate in a 96-well tissue culture plate (Costar, Corning, N.Y.) with serial dilutions of LMP-420, fludarabine, and/or recombinant TNF-alpha (R&D Systems, Minneapolis, Minn.) in Hybridoma serum free media (SFM) (GIBCO/Invitrogen, Carlsbad, Calif.) containing 10% heat-inactivated fetal bovine serum (FBS) (Sigma) at 37° C. with 5% CO2. After 72 hours, 20 μl CellTiter 96® AQueous One Solution Cell Proliferation Assay (Promega, Madison, Wis.) MTS (3-(4,5 dimethylthiazol-2-yl)-5-(3-carboxymethoxyphenyl-2-(4-sulfophenyl)-2H-tetrazolium) reagent was added to each well and the absorbance was read at 490 nm on a Thermomax microplate reader (Molecular Devices, Sunnyvale, Calif.). We calculated fractional cytotoxicity as performed previously (Reference 12), comparing absorbance at 490 nm from treated cells to control cells incubated with media alone.
(§2) The concentration effective at killing 50% of CLL cells compared to media alone (ED50) was calculated when 50% fractional cytotoxicity occurred within the range of serial dilutions tested (Reference 12). If the ED50 fell below or above this range, it was set to either the lowest or the highest concentration tested, respectively, for the purposes of statistical analyses and graphical representation.
In general terms: Tetrazolium dyes change colour on reduction, which living cells bring about.

Data set [2] deals with normal PBMCs. The data set is described as follows: [3H]-thymidine proliferation assay, mitogen-stimulated normal PBMCs. It is filed as cell-based, human. The settings on record: Homo sapiens, PBMC, 96 h. As to the method:
CLL cells (2×10^5 cells/well) were cultured in quadruplicate in a volume of 200 μl in 96-well tissue culture plates for 96 hours with 1 μM CpG-oligodeoxynucleotides (ODN) DSP30 (Reference 14) (Midland Certified Reagent Company, Midland, Tex.) and 100 units/ml IL-2 (R&D Systems) in the presence or absence of drug. As controls, cells were treated with media without DSP30/IL-2. Cells were incubated with 1 μCi/well [methyl-^3H]-thymidine (specific activity 6.7 Ci/mmol, PerkinElmer, Waltham, Mass., USA) for 14-18 hours prior to harvesting onto glass-fiber filters using a semi-automated cell harvester. [^3H]-thymidine incorporation was measured as counts per minute (cpm) using a Tri-Carb 2100 timed-resolved liquid scintillation counter (PerkinElmer). The same protocol was utilized for proliferation assays with normal PBMCs, with the exception that growth was stimulated by treatment with 10 μg/ml Phytohemagglutinin-P (PHA, Sigma), 5 μg/ml concanavalin A (ConA, Sigma), 2 μg/ml pokeweed mitogen (PWM, Sigma), 25 ng/ml muromonab-CD3 (α-CD3, Ortho Pharmaceuticals, Raritan, N.J.), or 50 ng/ml phorbol myristate acetate (PMA, Sigma) plus 1 μg/ml ionomycin (iono, Sigma) for 96 hours. Proliferation is reported as percent of control (drug-treated cpm/control-treated cpm×100%).

For another data set, the system named is CLL cells. Put plainly: MTS cytotoxicity assay on primary CLL cells. It counts as cell-based. The settings on record: Homo sapiens, CLL cell, 72 h. The procedure:
On the same day that heparin-anticoagulated venous blood was collected from participants, CLL cells were purified by methods described previously (Reference 11). Briefly, CLL cells were isolated from whole blood using the RosetteSep® B-cell enrichment cocktail (Stem Cell Technologies, Vancouver, BC, Canada) together with ficoll-Hypaque density gradient centrifugation. This method yielded CLL cell purity of greater than 95% CD5^+CD19^+ B-cells.
as §1, §2

The next data set relates to CD19-positive B-cell. The data set is described as follows: Annexin V apoptosis of normal B-lymphocytes in PBMCs. It counts as cell-based, human. The conditions noted are these: 72 hours. The procedure: (§3) PBMCs were cultured at 10^6 cells/ml in a 12-well tissue culture plate. Cells were treated for 72 hours with vehicle control or drug for 72 hours, then harvested as above for staining. PBMCs were resuspended at 2×10^5 cells/tube in 100 μl buffer (HBSS, 0.5% bovine serum albumin, 0.1% sodium azide) and incubated for 30 min with CD3-FITC or CD19-FITC antibodies according to the manufacturer's protocol (BD Biosciences). Cells were then incubated with PE-annexin V and 7-AAD (BD Biosciences) in annexin V binding buffer (BD Biosciences) for 15 minutes prior to analysis of apoptosis on the Guava EasyCyte™ Plus system.

The next data set relates to CD3-positive T-cell. Put plainly: Annexin V apoptosis of normal T-lymphocytes in PBMCs. It counts as cell-based, human. The conditions noted are these: 72 hours. As to the method:
as §3

The test system of data set [3] is CD34+ hematopoietic progenitor cells (erythroid colonies). Put plainly: Colony formation assay, erythroid colonies. It counts as cell-based, human. The settings on record: Homo sapiens, 336 h, read-out: mean IC50 for normal erythroid colony formation. The procedure:
(§4) CD34^+ hematopoietic progenitor cells were isolated from PBMCs from two healthy donors using the CD34 Microbead Kit (Miltenyi Biotec, Auburn, Calif.). 10^3 CD34^+-enriched cells were cultured in a 35 mm culture plate (1000 cells/plate) with or without LMP-420 or fludarabine in 1.1 ml Human Methylcellulose Complete Media (R&D Systems) according to the manufacturer's protocol. Plates were incubated for 14 days at 37° C. in humidified 5% CO2. Each treatment group was tested in triplicate. Colonies on plates were scored by two independent observers, blinded to the treatment groups, by microscopic evaluation under 10× and 20× power. Colonies were categorized as being of either erythroid or myeloid lineage.

In data set [4] the test system is CD34+ hematopoietic progenitor cells (myeloid colonies). The data set is described as follows: Colony formation assay, myeloid colonies. It counts as cell-based, human. The conditions noted are these: Homo sapiens, 336 h, read-out: mean IC50 for normal myeloid colony formation. As to the method:
as §4

Setting [5] is: read-out: IC50 for suppression of mitogen-induced proliferation, Con A, 96 hours.
[6] abbreviates: read-out: IC50 for suppression of mitogen-induced proliferation, PHA, 96 hours.
[7] abbreviates: read-out: IC50 for suppression of mitogen-induced proliferation, PMA/Iono, 96 hours.
The mark [8] stands for this setting: read-out: IC50 for suppression of mitogen-induced proliferation, PWM, 96 hours.
The mark [9] stands for this setting: read-out: IC50 for suppression of mitogen-induced proliferation, α-CD3, 96 hours.
The mark [10] stands for this setting: mean, PBMCs from healthy blood donors (n = 3-6).
Setting [11] is: Con A, 96 hours, read-out: IC50 for suppression of mitogen-induced proliferation.
[12] abbreviates: PWM, 96 hours, read-out: IC50 for suppression of mitogen-induced proliferation.

For the molecule “4-hydroperoxycyclophosphamide [Cyclophosphamide/4-HC]”, the “Therapeutic Index (PBMC ED50/CLL ED50)” value in the data set on normal PBMCs [1] worked out at 1.7.

As for `Cn1c(CCCC(=O)O)nc2cc(N(CCCl)CCCl)ccc21` [Bendamustine, bendamustine], the “Therapeutic Index (PBMC ED50/CLL ED50)” value in the data set with normal PBMCs [1] is reported as 29.2. Also, the EC50 in the data set on normal PBMCs [1] amounted to 146 µM. Besides, the IC50 in the data set on normal PBMCs [2] (setting [5]) was 16 µM; in the data set with normal PBMCs [2] (setting [6]), 17 µM; in the data set on normal PBMCs [2] (setting [7]) it was 35 µM; in the data set with normal PBMCs [2] (setting [8]), 14 µM; in the data set on normal PBMCs [2] (setting [9]), 20 µM.

As to `O=C(O)CCCc1ccc(N(CCCl)CCCl)cc1` [Chlorambucil], the “Therapeutic Index (PBMC ED50/CLL ED50)” value in the data set with normal PBMCs [1] turned out to be 22.6. Further, the EC50 in the data set with normal PBMCs [1] stood at 67.7 µM. Besides, the IC50 in the data set with normal PBMCs [2] (setting [5]) stood at 12 µM; in the data set with normal PBMCs [2] (setting [6]), 11 µM; in the data set on normal PBMCs [2] (setting [7]), 7 µM; in the data set on normal PBMCs [2] (setting [8]), 7.5 µM; in the data set on normal PBMCs [2] (setting [9]), 12.5 µM.

For the molecule `Nc1nc(Cl)nc2c1ncn2[C@H]1C[C@H](O)[C@@H](CO)O1` [Cladribine, cladribine], the “Therapeutic Index (PBMC ED50/CLL ED50)” value in the data set with normal PBMCs [1] is recorded as 10. Further, in the data set with normal PBMCs [1] (setting [10]), the EC50 worked out at 0.1 µM. Further, the values for the IC50 in the data set with normal PBMCs [2] (setting [11]) and with normal PBMCs [2] (setting [12]) were 0.15 µM and 0.1 µM, respectively.

On to `Nc1nc(F)nc2c1ncn2[C@@H]1O[C@H](COP(=O)(O)O)[C@@H](O)[C@@H]1O` [Fludarabine, fludarabine phosphate, reference compound], for which the EC50 stood at 0.252 µM in the data set on CLL cells (read-out: Median ED50 of fludarabine, 62 nM of LMP-420 added, 72 hours, 21 patient samples); 0.125 µM in the data set with CLL cells (read-out: Median ED50 of fludarabine, 250 nM of LMP-420 added, 72 hours, 21 patient samples); 0.978 µM in the data set with CLL cells (read-out: Median ED50 of fludarabine, no LMP-420 added, 72 hours, 21 patient samples); 3.1 µM with normal PBMCs [1] (setting [10]). Further, the “Therapeutic Index (PBMC ED50/CLL ED50)” value in the data set with normal PBMCs [1] stood at 2.6. The IC50 is < 3 µM in the data set on normal PBMCs [2] (setting [11]); < 3 µM with normal PBMCs [2] (PHA, 96 hours, read-out: IC50 for suppression of mitogen-induced proliferation); 0.8 µM in the data set with normal PBMCs [2] (PMA/Iono, 96 hours, read-out: IC50 for suppression of mitogen-induced proliferation); < 3 µM in the data set with normal PBMCs [2] (setting [12]); < 3 µM in the data set on normal PBMCs [2] (α-CD3, 96 hours, read-out: IC50 for suppression of mitogen-induced proliferation); 5 µM in data set [3]. For the same molecule, in data set [4], the IC50 came to 1 µM. In addition, the “apoptosis in normal B-cells” value in the data set with CD19-positive B-cell (0.4 μM) is given as “caused significant apoptosis”. Besides, the “average percent drug-specific apoptosis, B-cells” value with CD19-positive B-cell (1 μM, n=3) is listed as 70%. Further, the “apoptosis in normal T-cells” value with CD3-positive T-cell (0.4 μM) is on record as “caused significant apoptosis”. In addition, the “average percent drug-specific apoptosis, T-cells” value in the data set on CD3-positive T-cell (1 μM, n=3) came to 81%.
